Where a SMILES comes first, the peptide text is derived from it. The star is where a group is joined. Cbz = O=C(OCc1ccccc1)*
How the values were obtained:
[1] = tested on: apoptosis; details: ref [6], [7], [8], [9]; cited from earlier work
From the text: (§1) Natural products constitute a major resource for the identification of bioactive molecules. Indeed, most antibacterials in current use are natural products or semisynthetic derivatives thereof. The argyrins are natural peptides produced by myxobacteria and actinomycetes that have an intriguing antibacterial spectrum of activity, [2], [3]. This includes the intrinsically drug resistant organism Pseudomonas aeruginosa, but not other Gram negatives tested, such as Escherichia coli or Salmonella typhimurium, unless the cells are compromised in their outer membrane permeability barrier, p ...

[2] = tested on: proteasome; details: ref [6], [7], [8], [9]; cited from earlier work
From the text: as §1

[3] = tested on: angiogenesis; details: p27-dependent mechanism; ref [6], [7], [8], [9]; cited from earlier work
From the text: as §1

[4] = tested on: 512 human cancer cell lines; assay: Compound correlation analysis across the cell line panel; assay type: cell-based; details: Pearson correlation across 512 cell lines
Protocol: All cell lines were maintained in humidified incubators at 37°C and 5% CO2 in DMEM or RPMI1640 supplemented with 10% FBS. Cells were seeded into 1536-well plates at a density of 250 cells per well, allowed to adhere for 12–24 hours, then treated for 3 days with pharmacological agents in 8-point dose response (semi-log from 8 µM to 2.5 nM), and cell viability was assessed using CellTiter Glo (Promega). […] Compound correlation analysis was performed by calculating a Pearson correlation for each compound pair (using either IC50 or Amax values) across the 512 cell lines. We required data values for a minimum of 50 cell lines in common to avoid spuriously high correlations.

[5] = tested on: EF-G in complex with the ribosome; details: ref [22], [23], [24]; cited from earlier work
From the text: This may stand in contrast to the characterized inhibitor of EF-G, fusidic acid, which binds at the GDP/GTP binding pocket and interferes with the post translocation release of EF-G bound on the riboso ...

[6] = tested on: HCT116; assay: Cell viability (CellTiter-Glo), HCT116 with siRNA or mEF-G1 variants; assay type: cell-based, human; details: 7 days
Protocol: (§2) HCT116 (ATCC, CCL-247) and RKO (ATCC, CRL-2577) cell lines were maintained in a humidified incubator at 37°C and 5% CO2 in RPMI1640 supplemented with 10% FBS. Cell viability was determined using the CellTiter-Glo luminescent cell viability assay (Promega). […] Subsequently, 40 µl of CellTiter-Glo reagent was added to each well and luminescence recorded on an Envision plate reader (Perkin Elmer). Each treatment condition was tested in triplicate and compared to an equivalent volume of DMSO as control.
(§3) Non-targeting (NT) or GFM1 siRNA pools were obtained from Dharmacon (ON-TARGETplus SMART pool D-001810 and L-013685). HCT116 and RKO cells were reverse transfected in 6-well plates using RNAiMax (Invitrogen) and 25 nM siRNA. After 2 days, cells were harvested by trypsinization and re-plated into 6-well plates for western blot analysis or into 384-well plates for compound treatments and cell viability determination using CellTiter-Glo as described above.
(§4) The human GFM1 cDNA (encoding mEF-G1, Table 2) was mutagenized in pENTR221 (Invitrogen) using QuikChangeII XL site-directed mutagenesis (Stratagene). The following point mutations were introduced: C1355T (encoding S452L), C1481T (encoding S494F) and T2078A (encoding L693Q). The GFM1 cDNAs were then subcloned into the mammalian expression vector pLenti4/TO/V5 using LR clonase II (Invitrogen) and sequence-verified. The pLenti4 constructs were then co-transfected with a lentiviral plasmid mix (encoding LP1, LP2 and VSV-G) into 293T cells, and viral particles were harvested after 72 h and used to infect HCT116 and RKO cells. Stable cell lines were generated by selection with 400 µg/ml Zeocin and plated into 6-well plates for western blot analysis or into 384-well plates for compound treatments and cell viability determination using CellTiter-Glo as described above.

[7] = tested on: RKO; assay: Cell viability (CellTiter-Glo), RKO with siRNA or mEF-G1 variants; assay type: cell-based, human; details: 7 days
Protocol: as §2, §3, §4

[8] = tested on: Cox4-GFP labeled mitochondria; assay: Microscopy of mitochondrial morphology (Cox4-GFP); assay type: cell-based, S. cerevisiae; details: Benomyl 3× IC30 (90 µM), 30 minutes
Protocol: BY4741 cells containing a genomic COX4-GFP fusion where grown to mid-log phase in glucose and ethanol/glycerol media and incubated with the corresponding concentrations of compound for 30 minutes. Aliquots where spotted on microscopy slides and directly imaged on a Zeiss Axiovert 200Mot microscope equipped with a AxioCam MRm digital camera using the Plan-Neofluar 100×, 1.3 oil PH3 objective (Carl Zeiss, Feldbach, Switzerland). A z-stack consisting of 3 images spaced by […] in the filterset 38 (eGFP) channel and a phase-contrast image where acquired. False colors where applied to the GFP images (green) and phase contrast (blue) and the images merged into one plane and scaled to 8-bit. Representative, individual cells where selected and assembled into a panel using Adobe Photoshop (Adobe Systems Inc.).

## argyrin A
[1]
  Apoptosis (in words): induces apoptosis
[2]
  Proteasome inhibition (in words): inhibits the proteasome
[3]
  Angiogenesis (in words): blocks angiogenesis
[4]
  Correlation of IC50 and maximal activity (Amax) profile with argyrin B (in words): strong correlation

## CC(=O)O[C@H]1C[C@@]2(C)[C@@H](C[C@@H](O)[C@H]3[C@@]4(C)CC[C@@H](O)[C@@H](C)[C@@H]4CC[C@@]32C)/C1=C(\CCC=C(C)C)C(=O)O [fusidic acid]
[5]
  Binding to EF-G (in words): binds EF-G in complex with the ribosome

## CC(C)C[C@@H](C=O)NC(=O)[C@H](CC(C)C)NC(=O)[C@H](CC(C)C)NC(=O)OCc1ccccc1 [MG132, reference compound] (Cbz-Leu-Leu-Leu-aldehyde)
[6]; HCT116, GFM1 siRNA
  Sensitivity change on knock down of mEF-G1 (in words): without altering sensitivity
[6]; HCT116, mEF-G1 L693Q
  Sensitivity change on expression of mEF-G1 L693Q (in words): without altering sensitivity
[7]; GFM1 siRNA
  Sensitivity change on knock down of mEF-G1 (in words): without altering sensitivity
[7]; mEF-G1 L693Q
  Sensitivity change on expression of mEF-G1 L693Q (in words): without altering sensitivity

## CCCCNC(=O)n1c(NC(=O)OC)nc2ccccc21 [benomyl, reference compound]
[8]
  Effect on mitochondria (in words): had no effect on mitochondria
